This note sets out measurements from PMC7999199, “Novel Cationic Meso-Arylporphyrins and Their Antiviral Activity against HSV-1” (Pharmaceuticals, 2021).

The subject of one data set is HSV-1 (strain RD). Nature of the data set: Virucidal effect on HSV-1: virus incubated 2 h with compound, residual titer by CPE in Vero cells. Type of data set: cell-based, herpes simplex virus type 1. As to conditions: for IC50: Human alphaherpesvirus 1, Vero, HSV-1. The protocol:
Next, the virucidal effect of the drugs on HSV-1 in PBS and Pluronic F-127 was studied, in accordance with CC50 (Figure 5). The virucidal activity tests were performed by incubating HSV-1 with different concentrations of 3a,b and TMePyP for 2 h at a temperature of 36.8 °C and 5% CO2. Untreated viral suspensions were used as a control. Then, samples were added to a Vero culture seeded in 96-well plates, and the residual virus content was evaluated by developing a cytopathic effect on the fourth day of cultivation.
HSV-1 at tenfold dilutions DMEM-1% FCS (900 µL) was incubated with different concentration of the compounds (100 µL) at the final concentration ranging from 3 µM to 100 µM in DMEM-1% FCS or without of compound, each sample in volume 1 mL, for 2 h at 36.8 °C in 5% CO2 atmosphere. After treatment, the samples were applied to the Vero cell (the day before, cells were seeded at the rate of 15,000 cells/well in […] DMEM-5% FCS in 96-well plates) monolayers in 96-well plates (100 µL/well), and, after 4 days of cultivation at 36.8 °C in 5% CO2 atmosphere, titers were calculated based on the development of CPE, and the inhibitory activity of each compounds was calculated in relation to the control (HSV-1 without compounds). Data are reported as means of three independent assays, each run in triplicate.
Figure 5 Virucidal activity of 3a (a), 3b (b), TMePyP (c) dissolved in PBS and Pluronic F-127 regarding HSV-1. The results are presented as the virus titer percentage, with the porphyrin regarding the virus titer in control, which was taken as 100%. Each point represents the mean ± deviation of three experiments with three replicates.
Fig. 15S. Virucidal activity of 3a (A), 3b (B), TMePyP (C) compounds dissolved in PBS and Pluronic F127 regarding to HSV-1. HSV-1 at tenfold dilutions DMEM-1%FCS was incubated with different concentration of the compounds ranging from 3 µM/L to 100 µM/L in DMEM-1% FCS or without of compound , each sample in volume 1mL, for 2 hours at 36.8°C in 5% CO 2 atmosphere. After treatment the samples were applied to the Vero DMEM-5%FCS in 96 wells plates) monolayers in 96 wells plates (100 µL/well). and after 4 days of cultivation at 36.8 °C in 5% CO 2 atmosphere titers were calculated based on the development of CPE and the inhibi-tory activity of each compounds was calculated in relation to the control (HSV -1 without compounds). Data are reported as means of three independent assays, each run in tripli cate. The results were processed using the GraphPad Prism 5 program. […]

A short description of data set [1]: Micelle size of Pluronic F-127 formulations by dynamic light scattering. It is filed as physicochemical. As to conditions: Pluronic F-127 micelles, concentration 3·10^−6 M. The protocol: The size of obtained micelles for the compounds 3a,b was determined by the dynamic light scattering (DLS) method. The micelle size for compounds 3a,b was 17.53 nm and 14.69 nm, respectively, at concentrations of 3·10^−6 M (Figure 4a,b). It has previously been reported that a similar micelle size increased the efficiency and circulation of the encapsulated drug in the blood due to the small scale, which avoided the capture of nanoparticles by the reticular endothelial system.
NMR (^1H and ^13C) spectra of the test solutions in CDCl3 or (CD3OD) were recorded on a Bruker MSL-300 pulse Fourier transform spectrometer (Bruker, Billerica, MA, USA) at frequencies of 300.3 and 75.49 MHz, respectively, with internal deuterium stabilization. Tetramethylsilane was used as an external standard. IR spectra (4000–500 cm^–1) were recorded on Infralyum FT 02 Fourier spectrometer (Lumex Instruments Research and Production Company, Moscow, Russia) with a resolution of 1 cm^−1. Samples were prepared as KBr tablets. Dynamic light scattering was measured using Malvern Zetasizer Nano ZS (Malvern, United Kingdom). […] Mass spectra were recorded using an 1100 LCMSD liquid chromatograph (Agilent Technologies, Santa Clara, CA, USA) equipped with a mass spectrometric chemical ionization detector at atmospheric pressure (HIAD, APCI, ESI) and with a UV spectrophotometric detector (DAD). […]

Where [2] appears, read: Pluronic F-127 (F127) micellar formulation.

By IC50 is commonly meant the concentration that inhibits the measured activity by half.

For `C[n+]1ccc(-c2c3nc(c(-c4cc[n+](C)cc4)c4ccc([nH]4)c(-c4cc[n+](C)cc4)c4nc(c(-c5cc[n+](C)cc5)c5ccc2[nH]5)C=C4)C=C3)cc1` [TMePyP, 5,10,15,20-tetrakis(1-methyl-4-pyridinio)porphyrin tetraiodide, reference compound], the IC50 in the data set on HSV-1 (strain RD) (setting [2]) is 13.3 µM; with HSV-1 (strain RD) (dissolved in PBS) it was 2.3 µM.
Turning to `O=C(CC[n+]1ccccc1)Oc1ccc(-c2c3nc(c(-c4ccc(OC(=O)CC[n+]5ccccc5)cc4)c4ccc([nH]4)c(-c4ccc(OC(=O)CC[n+]5ccccc5)cc4)c4nc(c(-c5ccc(OC(=O)CC[n+]6ccccc6)cc5)c5ccc2[nH]5)C=C4)C=C3)cc1` [3a], the IC50 with HSV-1 (strain RD) (setting [2]) worked out at 99.8 µM. Besides, the “concentration showing a virucidal effect” value in the data set with HSV-1 (strain RD) (PBS and Pluronic F-127, only at the maximum concentration) came out at 100 µM. Besides, in data set [1], the “micelle size (DLS)” value came out at 17.53 nm.
